Active and inactive are the calls of the source. The calls are words filed in the database; no cut-off is given here.
Legend:
[1] = test system: RAW264.7; experiment: Anti-inflammatory activity in mouse RAW264.7 cells assessed as decrease in LPS-induced IL-6 level at 2.5 uM pretreated for 1 hr followed by LPS treatment for 16 hrs by ELISA relative to control; type: functional; conditions: time 17 hrs
[2] = test system: Pseudomonas aeruginosa; experiment: Synergistic antibacterial activity against multi-drug resistant Pseudomonas aeruginosa CCARM 2095 incubated for 24 hrs in presence of Chloramphenicol by broth microdilution method; type: functional
[3] = test system: Staphylococcus aureus; experiment: Antibacterial activity against methicillin-resistant Staphylococcus aureus CCARM 3095 incubated for 24 hrs by CLSI based broth microdilution method; type: functional
[4] = test system: Pseudomonas aeruginosa; experiment: Antibacterial activity against multi-drug resistant Pseudomonas aeruginosa CCARM 2095 incubated for 24 hrs by broth microdilution method; type: functional
[5] = test system: Pseudomonas aeruginosa; experiment: Synergistic antibacterial activity against multi-drug resistant Pseudomonas aeruginosa CCARM 2095 assessed as fractional inhibitory concentration index by measuring ratio of MIC of compound in presence of Ciprofloxacin to MIC to compound incubated for 24 hrs by broth microdilution method; type: functional
[6] = test system: RAW264.7; experiment: Anti-inflammatory activity in mouse RAW264.7 cells assessed as decrease in LPS-induced ROS production at 5 uM pretreated for 1 hr followed by LPS treatment for 16 hrs by DCFDA staining based analysis relative to control; type: functional
[7] = test system: Staphylococcus aureus; experiment: Antibacterial activity against Staphylococcus aureus KCTC 1621 incubated for 24 hrs by CLSI based broth microdilution method; type: functional
[8] = test system: Staphylococcus aureus; experiment: Synergistic antibacterial activity against methicillin-resistant Staphylococcus aureus CCARM 3089 assessed as MIC of Oxacillin incubated for 24 hrs by broth microdilution method; type: functional
[9] = test system: RAW264.7; experiment: Anti-inflammatory activity in mouse RAW264.7 cells assessed as decrease in LPS-induced IL-6 level at 5 uM pretreated for 1 hr followed by LPS treatment for 16 hrs by ELISA relative to control; type: functional; conditions: time 17 hrs
[10] = test system: RAW264.7; experiment: Anti-inflammatory activity in mouse RAW264.7 cells assessed as inhibition of LPS-induced NO production at 5 uM pretreated for 1 hr followed by LPS treatment for 16 hrs by Griess assay relative to control; type: functional; conditions: time 17 hrs
[11] = Effect on secondary structure of drug in LPS assessed as fold increase in formation of alpha-helical conformation at 150 uM by CD analysis relative to HVF18; type: physicochemical
[12] = test system: Pseudomonas aeruginosa; experiment: Eradication of biofilm formation in multi-drug resistant Pseudomonas aeruginosa CCARM 2095 at 32 uM incubated for 12 hrs by CLSM analysis relative to control; type: functional
[13] = test system: Acinetobacter baumannii; experiment: Antibacterial activity against multidrug-resistant Acinetobacter baumannii 329-97 incubated for 24 hrs by CLSI based broth microdilution method; type: functional
[14] = test system: Staphylococcus aureus; experiment: Antibacterial activity against methicillin-resistant Staphylococcus aureus CCARM 3089 incubated for 24 hrs by broth microdilution method; type: functional
[15] = test system: Escherichia coli; experiment: Induction of resistance development in Escherichia coli KCTC 1682 at 0.5 times MIC measured after 30 passages; type: functional, organism-based
[16] = test system: Pseudomonas aeruginosa; experiment: Antibacterial activity against Pseudomonas aeruginosa KCTC 1637 incubated for 24 hrs by CLSI based broth microdilution method; type: functional
[17] = test system: RAW264.7; experiment: Anti-inflammatory activity in mouse RAW264.7 cells assessed as inhibition of LPS-induced NO production at 2.5 uM pretreated for 1 hr followed by LPS treatment for 16 hrs by Griess assay relative to control; type: functional; conditions: time 17 hrs
[18] = test system: Pseudomonas aeruginosa; experiment: Synergistic antibacterial activity against multi-drug resistant Pseudomonas aeruginosa CCARM 2095 assessed as fractional inhibitory concentration index incubated for 24 hrs in presence of Ciprofloxacin by broth microdilution method; type: functional
[19] = test system: Acinetobacter baumannii; experiment: Antibacterial activity against multidrug-resistant Acinetobacter baumannii 329-53 incubated for 24 hrs by CLSI based broth microdilution method; type: functional
[20] = test system: Pseudomonas aeruginosa; experiment: Synergistic antibacterial activity against multi-drug resistant Pseudomonas aeruginosa CCARM 2095 assessed as fractional inhibitory concentration index by measuring ratio of MIC of Chloramphenicol in presence of compound to MIC to Chloramphenicol incubated for 24 hrs by broth microdilution method; type: functional
[21] = test system: Pseudomonas aeruginosa; experiment: Eradication of biofilm formation in multi-drug resistant Pseudomonas aeruginosa CCARM 2095 at 1 to 128 uM incubated for 12 hrs by CLSM analysis; type: functional, organism-based; conditions: dose 1-128 µM
[22] = test system: Pseudomonas aeruginosa; experiment: Antibacterial activity against multidrug-resistant Pseudomonas aeruginosa CCARM 2109 incubated for 24 hrs by CLSI based broth microdilution method; type: functional
[23] = test system: Staphylococcus aureus; experiment: Synergistic antibacterial activity against methicillin-resistant Staphylococcus aureus CCARM 3089 assessed as fractional inhibitory concentration index incubated for 24 hrs in presence of Chloramphenicol by broth microdilution method; type: functional
[24] = Hemolytic activity in sheep RBC incubated for 1 hr by absorbance based assay; type: toxicity, cell-based, Ovis aries; conditions: erythrocyte
[25] = test system: Escherichia coli; experiment: Induction of cytoplasmic membrane potential in Escherichia coli KCTC 1682 at 0.5 to 1 times MIC measured for 500 secs by diSC3-5 dye based analysis; type: functional, organism-based; conditions: time 500.0 sec
[26] = test system: Pseudomonas aeruginosa; experiment: Synergistic antibacterial activity against multi-drug resistant Pseudomonas aeruginosa CCARM 2095 assessed as MIC of Oxacillin incubated for 24 hrs by broth microdilution method; type: functional
[27] = test system: Escherichia coli; experiment: Induction of cytoplasmic membrane depolarization in Escherichia coli KCTC 1682 at MIC measured for 500 secs by diSC3-5 dye based analysis relative to control; type: functional; conditions: time 500 sec; 0.1389 h
[28] = test system: Escherichia coli; experiment: Antibacterial activity against Escherichia coli KCTC 1682 incubated for 24 hrs in presence of KCl by CLSI based broth microdilution method; type: functional
[29] = test system: Staphylococcus aureus; experiment: Synergistic antibacterial activity against methicillin-resistant Staphylococcus aureus CCARM 3089 assessed as MIC of Chloramphenicol incubated for 24 hrs by broth microdilution method; type: functional
[30] = Hemolytic activity in sheep RBC at 256 uM incubated for 1 hr by absorbance based assay; type: toxicity, cell-based, Ovis aries, Erythrocyte; conditions: sheep red blood cells, read-out: Activity
[31] = test system: Pseudomonas aeruginosa; experiment: Inhibition of biofilm formation in multi-drug resistant Pseudomonas aeruginosa CCARM 2095 at 1 to 128 uM by crystal violet staining based analysis; type: functional, organism-based; conditions: dose 1-128 µM
[32] = test system: Pseudomonas aeruginosa; experiment: Synergistic antibacterial activity against multi-drug resistant Pseudomonas aeruginosa CCARM 2095 incubated for 24 hrs in presence of Oxacillin by broth microdilution method; type: functional
[33] = test system: Staphylococcus aureus; experiment: Synergistic antibacterial activity against methicillin-resistant Staphylococcus aureus CCARM 3089 assessed as fractional inhibitory concentration index incubated for 24 hrs in presence of Ciprofloxacin by broth microdilution method; type: functional
[34] = test system: Staphylococcus aureus; experiment: Synergistic antibacterial activity against methicillin-resistant Staphylococcus aureus CCARM 3089 assessed as fractional inhibitory concentration index incubated for 24 hrs in presence of Oxacillin by broth microdilution method; type: functional
[35] = test system: Escherichia coli; experiment: Antibacterial activity against Escherichia coli KCTC 1682 incubated for 24 hrs in presence of NaCl by CLSI based broth microdilution method; type: functional
[36] = Cytotoxicity against mouse RAW264.7 cells assessed as cell viability at 30 uM incubated for 16 hrs by WST-8 assay relative to control; type: toxicity, cell-based; conditions: read-out: Activity
[37] = test system: Pseudomonas aeruginosa; experiment: Synergistic antibacterial activity against multi-drug resistant Pseudomonas aeruginosa CCARM 2095 assessed as MIC of Chloramphenicol incubated for 24 hrs by broth microdilution method; type: functional
[38] = test system: Escherichia coli; experiment: Induction of inner membrane permeabilization in Escherichia coli KCTC 1682 at MIC by PI staining based flow cytometry (reference value: 1.51 %); type: functional

Substance | inhibition at 2.5 µM [1] [%] | MIC [2] [µM] | MIC [3] [µM] | MIC [4] [µM] | FIC [5] | inhibition at 5 µM [6] [%] | MIC [7] [µM] | MIC [8] [µM] | inhibition at 5 µM [9] [%] | inhibition at 5 µM [10] [%] | fold change (FC) [11] | Activity [12] [%] | MIC [13] [µM] | MIC [14] [µM] | Activity [15] | MIC [16] [µM] | inhibition at 2.5 µM [17] [%] | fractional inhibitory concentration index (FICI) [18] | MIC [19] [µM] | FIC [20] | also measured
H-GVFRLKKWIKKVIKKWGK-NH2 | 28.6 | 2 | 8 | 8 | 0.5 | 40 | 8 | 512 | 44.4 | 89 | ~ 5 | >50 | 2 | 8 | inactive | 8 | 80.7 | 0.625 | 4 | 0.125 | Activity [21]: Active; Superior Activity Compared To Ll-37; MIC [22]: 16 µM; fractional inhibitory concentration index (FICI) [23]: 0.5; HC10 [24]: > 256 µM; Activity [25]: Active; MIC [26]: 128 µM; Activity [27]: ~100%; MIC [28]: 32 µM; MIC [29]: 256 µM; hemolysis at 1 h, 256 µM [30]: 8.9%; Activity [31]: Active; Superior Activity Compared To Ll-37; MIC [32]: 2 µM; fractional inhibitory concentration index (FICI) [33]: 0.75; fractional inhibitory concentration index (FICI) [34]: 0.313; MIC [35]: 32 µM; viability at 16 h, 30 µM [36]: > 80%; MIC [37]: 512 µM; Activity [38]: ~100%
H-GVFRLKKWLKKVKKWGK-NH2 | 98.5 | 2 | 8 | 8 | 0.5 | 51.1 | 8 | 512 | 99 | 91.6 | ~ 5 | >50 | 4 | 8 | inactive | 8 | 80.3 | 0.75 | 4 | 0.125 | Activity [21]: Active; Superior Activity Compared To Ll-37; MIC [22]: 8 µM; fractional inhibitory concentration index (FICI) [23]: 0.563; HC10 [24]: > 256 µM; Activity [25]: Active; MIC [26]: 128 µM; Activity [27]: ~100%; MIC [28]: 16 µM; MIC [29]: 512 µM; hemolysis at 1 h, 256 µM [30]: 9.1%; Activity [31]: Active; Superior Activity Compared To Ll-37; MIC [32]: 2 µM; fractional inhibitory concentration index (FICI) [33]: 1; fractional inhibitory concentration index (FICI) [34]: 0.313; MIC [35]: 32 µM; viability at 16 h, 30 µM [36]: > 80%; MIC [37]: 512 µM; Activity [38]: ~100%

Source: ChEMBL document CHEMBL6074662, “Antibacterial, Antibiofilm, and Anti-inflammatory Effects of a Novel Thrombin-Derived Peptide in Sepsis Models: Insights into Underlying Mechanisms” (J Med Chem, 2024)
